The values that follow come from patent US20110053897A1 (IRM LLC, priority 2009, published 2011).

Molecules are shown by their SMILES.

The target of the assay is T1, Syk kinase (Homo sapiens, UniProt P43405).
T1 construct: purchased
As to the kind of experiment: Syk kinase inhibition, Caliper LabChip off-chip mobility-shift kinase assay. The class given is biochemical. The settings on record: read-out: Syk Enzyme IC50. On the procedure:
Compounds of the examples and Table 1 provided herein were assayed to measure their capacity to inhibit Syk kinase.
Compounds of the examples and Table 1 provided herein were assessed for their ability to inhibit Syk kinase by utilizing Caliper Life Sciences' proprietary LabChip™ technology. The off-chip incubation mobility-shift kinase assay uses a microfluidic chip to measure the conversion of a fluorescent peptide substrate to a phosphorylated product. The reaction mixture, from a microtiter plate well, is introduced through a capillary sipper onto the chip, where the nonphosphorylated substrate and phosphorylated product are separated by electrophoresis and detected via laser induced fluorescence. […] The phosphorylated product migrates through the chip faster than the non-phosphorylated substrate, and signals from the two forms of the peptide appear as distinct peaks. Caliper's data analysis software (HTSWA) determines peak heights, from which the ratio of product to the peak sum P/(P+S) and percent (%) conversion is calculated. This value is used to compare compound wells to control wells present on the plate, and thereby determine the % inhibition values for the compound. The formula used to calculate % inhibition is as follows, where C100% is the average % conversion of the 100% activity wells and Co% is the average % conversion of the 0% activity wells: (1−(% conversionofsample−C0%)/(C100%−C0%))*100.
Compounds (10 mM stocks in 100% DMSO) are diluted to a final concentration of 5 μM for single point inhibition experiments, and a series dilution of 10, 3, 1, 0.3, 0.1, 0.03, 0.01, 0.003, 0.001, 0.0003, 0.0001, and 0.00003 μM were made for IC50 determination. Generally, 12 μL of enzyme buffer containing purified kinase (various amount; various suppliers), 100 mM HEPES, pH 7.5, 1 mM DTT (Calbiochem, 2333153), 10 mM MgCl2 (Sigma, M-1028) or 10 mM MnCl2 (Sigma, M-1787) (assay specific), and 0.002% Brij-35 (Sigma, B4184) are added to each well. Compound and enzyme are allowed to pre-incubate for 15 minutes. 12 μL of peptide/ATP buffer containing 100 mM HEPES, pH 7.5, 1.5 μM fluorescein-labeled peptide (specific to kinase of interest), ATP (at KM apparent, Sigma, A9187), and 0.002% Brij-35 is then added to each well to initiate the reaction. The final concentration of DMSO in the well is 4%. Generally, reactions are incubated for 1 to 1.5 hours at room temperature to obtain adequate conversion of peptide to phosphorylated product in the linear range of the reaction. Reactions are terminated with the addition of 45 μL of Stop Buffer (containing 20 mM EDTA). Plates are then read on the LabChip 3000 using a 12-sipper LabChip. % conversion values and % inhibition values are obtained as provided and IC50 curves of compounds are generated using GraphPad Prism Version 4 or 5.01, or XLfit Version 4.3.2. When using GraphPad Prism, a nonlinear curve fit using the sigmoidal dose response—variable slope fit was used to graph IC50 curves and determine IC50 values and hillslopes. When using XLfit, Fit Model 205 (4-Parameter Logistic Model) is used to generate and fit the IC50 curve.
By IC50 is commonly meant the concentration that gives 50% inhibition. `CCC(=O)N1CCC(c2ccc(Nc3nc(-c4cncc(OC)n4)cc4cc[nH]c(=O)c34)cc2C)CC1` [compound 80]: the IC50 amounted to 63 nM.
As for `COc1cncc(-c2cc3cc[nH]c(=O)c3c(Nc3ccc(C4CCN(CC5CC5)CC4)c(C)c3)n2)n1` [compound 81], the IC50 was determined as 4 nM.
For the molecule `COc1cncc(-c2cc3cc[nH]c(=O)c3c(Nc3ccc(C(=O)NCCN4CCCC4)cc3)n2)n1` [compound 82], the IC50 stood at 14 nM.
For `CCN1CCC[C@@H]1CNC(=O)c1ccc(Nc2nc(-c3cncc(OC)n3)cc3cc[nH]c(=O)c23)cc1` [compound 83] the value was 14 nM.
As for `CNC(C)(C)C(=O)N1CCC(c2ccc(Nc3nc(-c4cncc(OC)n4)cc4cc[nH]c(=O)c34)cc2C)CC1` [compound 84], the IC50 stood at 5 nM.
Turning to `CCOCCN1CCC(c2ccc(Nc3nc(-c4cncc(OC)n4)cc4cc[nH]c(=O)c34)cc2C)CC1` [compound 85], the IC50 was found to be 78 nM.
Regarding `O=c1[nH]ccc2cc(C3=CCOCC3)nc(Nc3ccc(N4CCOCC4)cc3)c12` [compound 86], the IC50 was 96 nM.
For `O=c1[nH]ccc2cc(C3CCOCC3)nc(Nc3ccc(N4CCOCC4)cc3)c12` [compound 87], the IC50 turned out to be 58 nM.
Take `O=c1[nH]ccc2cc(C3=CCNCC3)nc(Nc3ccc(N4CCOCC4)cc3)c12` [compound 88]: the IC50 turned out to be 51 nM.
Take `COc1cncc(-c2cc3cc[nH]c(=O)c3c(Nc3ccc(C4CCN(C(=O)C5CCOC5)CC4)c(C)c3)n2)n1` (centres unmarked) [compound 89]: the IC50 stood at 55 nM.
`COCC(Cl)C(=O)N1CCC(c2ccc(Nc3nc(-c4cncc(OC)n4)cc4cc[nH]c(=O)c34)cc2C)CC1` (centres unmarked) [compound 90]: the IC50 was found to be 204 nM.
For `O=C1CCC(c2ccc(Nc3nc(-c4cncnc4)cc4cc[nH]c(=O)c34)cc2)CC1` [compound 91] the value was 400 nM.
Turning to `CN(C)[C@H]1CC[C@H](c2ccc(Nc3nc(-c4cncnc4)cc4cc[nH]c(=O)c34)cc2)CC1` [compound 92], the concentration for half-maximal inhibition (IC50) was found to be 45 nM.
For `C[C@@H]1CN([C@H]2CC[C@H](c3ccc(Nc4nc(-c5cncnc5)cc5cc[nH]c(=O)c45)cc3)CC2)CCO1` [compound 93] the value was 433 nM; for `CC(C)(C)N1CC=C(c2ccc(Nc3nc(-c4cncnc4)cc4cc[nH]c(=O)c34)cc2)CC1` [compound 94], 13 nM.
For `COc1cncc(-c2cc3cc[nH]c(=O)c3c(Nc3ccc4c(c3)C3CC4CN(C(=O)C(F)(F)F)C3)n2)n1` (centres unmarked) [compound 95], the IC50 was 2370 nM.
Turning to `COc1cncc(-c2cc3cc[nH]c(=O)c3c(Nc3ccc4c(c3)C3CNCC4C3)n2)n1` (centres unmarked) [compound 96], the IC50 is 1660 nM.
Turning to `O=C(N1CC2CC(C1)c1cc(Nc3nc(-c4cnccn4)cc4cc[nH]c(=O)c34)ccc12)C(F)(F)F` (centres unmarked) [compound 97], the IC50 is 2500 nM.
With `O=c1[nH]ccc2cc(-c3cnccn3)nc(Nc3ccc4c(c3)C3CNCC4C3)c12` (centres unmarked) [compound 98], the IC50 is 1520 nM.
As for `Cn1cc(-c2cc3cc[nH]c(=O)c3c(Nc3ccc([C@H]4CC[C@H](N5CCOCC5)CC4)cc3)n2)cn1` [compound 99], the IC50 amounted to 168 nM.
As to `Cc1cc(-c2cc3cc[nH]c(=O)c3c(Nc3ccc([C@H]4CC[C@H](N5CCOCC5)CC4)cc3)n2)cnc1N` [compound 100], the IC50 was 193 nM.
For the molecule `Cc1nc(N)ncc1-c1cc2cc[nH]c(=O)c2c(Nc2ccc([C@H]3CC[C@H](N4CCOCC4)CC3)cc2)n1` [compound 101], the IC50 is 668 nM.
Turning to `Cc1nc(-c2cc3cc[nH]c(=O)c3c(Nc3ccc([C@H]4CC[C@H](N5CCOCC5)CC4)cc3)n2)cnc1N` [compound 102], the IC50 was found to be 226 nM.
As to `CN1CCN([C@H]2CC[C@H](c3ccc(Nc4nc(-c5cncnc5)cc5cc[nH]c(=O)c45)cc3)CC2)CC1` [compound 103], the IC50 is 59 nM.
Consider `CN1CCN(C2CCC(c3ccc(Nc4nc(-c5cncnc5)cc5cc[nH]c(=O)c45)cc3)CC2)CC1` (centres unmarked) [compound 104], for which the IC50 worked out at 31 nM.
For `Cc1ncc(-c2cc3cc[nH]c(=O)c3c(Nc3ccc(C4CCC(N(C)C)CC4)cc3)n2)cn1` (centres unmarked) [compound 106], the IC50 was 67 nM.
